Results taken from patent US20240287065A1, “COMPOUND AS CDK KINASE INHIBITOR AND USE THEREOF” (TYK MEDICINES (ZHENGZHOU) , INC., priority 2021, published 2024).
Where two headings read alike, the source gives them in different places.

Columns and labels:
[1] = system: HCC1806 cells; assay: Cell proliferation inhibition assay (MTT, 7 days); format: cell-based; settings: HCC1086 [sic], 7 days incubation
Method: (§1) MCF7, T47D, OVCAR3 and HCC1806 cells were inoculated in 96-well plates at 3000, 3000, 2500, and 2000 cells/well, respectively, and cultured overnight at 37° C., 5% C02 incubator.
(§2) 1. […] Then 2.5 μl of the stock solution was dissolved in 497.5 μl of DMSO-free medium, and then a 3-fold serial gradient dilution was performed with 0.1% DMSO medium for a total of 9 concentrations, and the concentrations of the compounds after dilution were as follows: • 10000 nM, 3333.33 nM, 1111.11 nM, 370.34 nM, 123.45 nM, 41.15 nM, 13.72 nM, 4.57 nM, and 1.52 nM. • b) After fully mixing, 20 μL of compound solutions were added into cell culture plates containing 80 μL of cells respectively, with 4 replicate wells for each concentration. • c) The cells were transferred to an incubator and incubated for 7 days, and exchanged with fresh culture medium containing the same concentration of compounds when incubated to day 4. 2. MTT assay • a) The cell culture plate was taken out and 10 μL of 5 mg/ml MTT was added to the hood. • b) The cell culture plate was put back into the incubator and continued to incubate for 3 hours. • c) The cell culture plate was taken out to remove the culture medium, and 100 μL of isopropanol (0.4 mMHCl, 0.4% NP40) was added to the plate, and the plate was shaken on a shaker at room temperature for 30 minutes and read at 570 nm. 3. Data analysis
(§3) The survival rate (% Cell Survival) was calculated using the following equation:
(§4) % Cell Survival=100%×(OD_Sample−OD_LCave)/(OD_HC−OD_LCave) • OD_HC: 0.1‰ cell readings of DMSO control • OD_Sample: cell readings of compound addition • OD_LC: readings of blank medium • Analyed by Prizm: Dose-response-Inhibition Log(inhibitor) vs response (three parameters for the best fit)
(§5) IC50 (nM) values were calculated by concentration-response curve fitting.

[2] = system: OVCAR3 cells; assay: Cell proliferation inhibition assay (MTT, 7 days); format: cell-based; settings: 7 days incubation
Method: as §1, §2, §3, §4, §5

[3] = system: MCF7 cells; assay: Cell proliferation inhibition assay (MTT, 7 days); format: cell-based; settings: 7 days incubation
Method: as §1, §2, §3, §4, §5

[4] = system: T47D cells; assay: Cell proliferation inhibition assay (MTT, 7 days); format: cell-based; settings: 7 days incubation
Method: as §1, §2, §3, §4, §5

[5] = biological target: CDK2/CycE1 (Homo sapiens, UniProt P24941); assay: Enzyme activity test; format: biochemical;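 note: values come from the source column headed CDK2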
Method: (§6) • 1. The test compounds and pabocinib were configured into a […] solution of DMSO; • 2. 20 nL of stock solution was transferred to a 384-well plate using Echo550. DMSO was used as a blank control.
(§7) • 1. according to the following table to prepare 1.3X enzyme solution containing enzyme, substrate and cofactor; • 2. 15 μL of 1.3X enzyme solution was added to each well and the mixture was incubated for 30 min at room temperature; • 3. 5 μL of ATP solution was added to initiate the reaction. The final volume of each well was 20 μL; • 4. After incubation for 150 min at room temperature, 75 μL of termination buffer solution was added to terminate the experiment; • 5. The samples were analyzed using EZ reader.
(§8) The % inhibition was calculated using the following equation
(§9) The one treated with DMSO is the positive control (PC)
(§10) The one without enzyme is the negative control (NC)
(§11) % Inhibition=100-100*((CRPC−CRsample)/(CRPC−CRNC))

[6] = biological target: CDK4/CycD3 (Homo sapiens, UniProt P11802); assay: Enzyme activity test; format: biochemical;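 note: values come from the source column headed CDK4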
Chain of CDK4/CycD3 (P11802 whole entry, species assumed): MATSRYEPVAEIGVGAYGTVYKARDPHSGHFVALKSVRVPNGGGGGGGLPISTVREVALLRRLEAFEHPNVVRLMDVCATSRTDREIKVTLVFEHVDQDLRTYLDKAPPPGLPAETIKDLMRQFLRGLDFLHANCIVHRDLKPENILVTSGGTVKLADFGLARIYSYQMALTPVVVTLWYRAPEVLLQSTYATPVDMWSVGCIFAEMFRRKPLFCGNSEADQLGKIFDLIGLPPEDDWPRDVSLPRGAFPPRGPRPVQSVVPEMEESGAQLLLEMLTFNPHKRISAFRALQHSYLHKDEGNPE
Chain of CDK4/CycD3 (P30281 whole entry partner, species assumed): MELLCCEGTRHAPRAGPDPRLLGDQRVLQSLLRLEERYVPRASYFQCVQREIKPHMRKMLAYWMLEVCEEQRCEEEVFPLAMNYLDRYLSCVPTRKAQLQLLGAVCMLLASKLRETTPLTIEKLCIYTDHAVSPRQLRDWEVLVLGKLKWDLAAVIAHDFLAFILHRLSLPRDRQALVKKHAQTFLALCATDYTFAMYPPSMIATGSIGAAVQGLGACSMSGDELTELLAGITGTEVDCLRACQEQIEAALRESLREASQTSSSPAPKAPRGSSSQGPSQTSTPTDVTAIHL
Method: as §6, §7, §8, §9, §10, §11

[7] = biological target: CDK6/CycD1 (Homo sapiens, UniProt Q00534); assay: Enzyme activity test; format: biochemical;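 note: values come from the source column headed CDK6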
Chain of CDK6/CycD1 (Q00534 whole entry, species assumed): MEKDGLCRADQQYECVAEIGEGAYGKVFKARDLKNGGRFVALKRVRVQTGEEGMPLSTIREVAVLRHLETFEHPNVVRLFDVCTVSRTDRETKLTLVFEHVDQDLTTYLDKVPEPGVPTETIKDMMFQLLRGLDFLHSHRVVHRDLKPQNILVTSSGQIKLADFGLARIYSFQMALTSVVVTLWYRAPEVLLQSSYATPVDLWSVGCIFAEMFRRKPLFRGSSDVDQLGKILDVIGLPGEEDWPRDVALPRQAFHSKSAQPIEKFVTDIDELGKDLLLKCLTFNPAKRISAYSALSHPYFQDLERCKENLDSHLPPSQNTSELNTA
Chain of CDK6/CycD1 (P24385 whole entry partner, species assumed): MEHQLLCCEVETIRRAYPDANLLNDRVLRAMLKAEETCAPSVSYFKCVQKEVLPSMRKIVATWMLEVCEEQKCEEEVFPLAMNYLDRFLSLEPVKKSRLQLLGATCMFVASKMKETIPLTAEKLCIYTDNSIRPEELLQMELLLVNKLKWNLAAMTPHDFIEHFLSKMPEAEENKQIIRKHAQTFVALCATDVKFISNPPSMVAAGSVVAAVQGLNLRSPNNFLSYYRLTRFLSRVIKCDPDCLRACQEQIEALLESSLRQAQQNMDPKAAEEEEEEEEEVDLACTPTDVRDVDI
Method: as §6, §7, §8, §9, §10, §11

[8] = system: OVCAR-3 cells; assay: OVCAR-3 xenograft tumor model; format: in vivo; settings: BALB/c nude female mice
Method: OVCAR-3 cells were cultured in RPMI1640 culture medium containing 20% fetal bovine serum and 10 μg/mL Insalin. Cells in the exponential growth phase were collected, and the cells were resuspended in the mixed solution of PBS and Matrigel in a ratio of 1:1 to a suitable concentration for subcutaneous tumor inoculation in nude mice.
To establish a xenograft tumor model, 1×10^7 OVCAR-3 cells were suspended in 0.2 mL of a mixture of PBS and Matrigel (1:1) and injected subcutaneously into 6-8-week-old BALB/c nube female mice on the right back. Tumor growth was observed periodically, and the volume (volume=½[…](length×width 2)) was measured with a vernier caliper. When the tumors grew to an average volume of 100˜150 mm^3, the drug was administered to mice (27 days after inoculation) in random groups according to the tumor size and their body weights. […] Tumor volume and animal weight were measured twice a week and continued until the end of the experiment. Dosing day was defined as day 0. Measurement time points were day 0, day 3, day 7, day 10, day 14, day 17 and day 21. All mice were euthanized by cervical dislocation. At the end of the experiment, tumors were collected and weighed to calculate TGI values (see Table 5).

[9] = system: MCF-7-Palbo-R cells; assay: MCF-7-Palbo-R cell antiproliferative assay (BrdU ELISA); format: cell-based; settings: for IC50: 72 hours, BrdU; for Bottom(%): bottom of inhibition curve; for Top(%): top of inhibition curve
Method: 1. Experimental Materials • MCF-7/palbo-R • EMEM medium (ATCC, 30-2003); DMEM/F12 medium (Gibco-1 1330-032) • Fetal bovine serum (cellmax-SA21 1.02) • DMSO (SIGMA, D2650) • BrdU ELISA cell proliferation assay kit (Roche, 11647229001) • ELISA (e.g. MD-SpectraMax ID5 or EnVision)
2. Experimental protocol • 1. Cell spreading • 1) Cells were counted, the concentration of cell suspension was adjusted • 2) The MCF7/Palbo-R cell suspension was seeded in 96-well plates at […] volume to make the number of cells per well is 4000-5000; • 3) Blank control group was added with 90 μl of culture medium; • 2. […] A 3-fold serial gradient dilution was performed with 0.1% DMSO medium for a total of 9 concentrations, and the concentrations of the compounds after dilution were as follows: • 10000 nM, 3333.33 nM, 1111.11 nM, 370.34 nM, 123.45 nM, 41.15 nM, 13.72 nM, 4.57 nM, and 1.52 nM. • b) After 72 hours of compound treatment. • 1) A 10 mM of Brdu stock solution was diluted with RPMI medium and added to a 96-well plate at 20 uL/well and shaken at 350 rpm for 10 minutes. • 2) The 96 well plate was placed back into the incubator for 1 or 2 hours. • 3) After the medium was removed from the 96-well plate, 200 ul/well of Fixation/Denaturation solution was added and incubated for 30 minutes at room temperature. • 4) The fixation solution was removed and 100 ul of peroxidase-coupled anti-Brdu antibody solution (antibody dilution prepared at 1:100 dilution) was added, • and incubated at 350 rpm for 1 hour at room temperature. • 6) The 96-well plate was washed three times with 300 ul/well of PBS. • 8) 100ul of peroxidase substrate solution was added and shaken at 350 rpm for about 10-20 minutes at room temperature, • until the DMSO-treated cell control wells turn a medium blue color. If a color is too dark, it will cause the absorbance value to out of the reading range. • 9) The reaction was terminated by the addition of 25 ul of 1 M sulfuric acid. Shake to ensure uniform color. • 10) The absorbance at 450 nm was recorded. • 3. Data analysis • The inhibition rate is calculated using the following equation:
IR (%)=(1−(RLU compound−RLU blank)/(RLU control−RLU blank))*100%.

[10] = system: MV4-11 cells; assay: MV4-11 xenograft tumor model; format: in vivo; settings: 20 mg/kg, oral tube feeding once a day for 15 days, NOD/SCID mice
Method: MV-4-11 cells were cultured in IMEM culture medium containing 10% fetal bovine serum. Cells in the exponential growth phase were collected, and the cells were resuspended in PBS to a suitable concentration for subcutaneous tumor inoculation in nude mice.
To establish a xenograft tumor model, 5×10^6 MV4-11 cells were suspended in 0.1 mL of a 1:1 mixture of PBS and Matrigel and injected subcutaneously into the right dorsal side of 6-8-week-old NOD/SCID mice. Tumor growth was observed periodically, and the volume (volume=½×(length×width^2)) was measured with a vernier caliper. When the tumors grew to an average volume of 100˜150 mm^3, the drug was administered to mice (12 days after inoculation) in random groups according to the tumor size and their body weights. […] Among them, the mice in the Vehicle, 10 mg/kg TY-3301, 10 mg/kg C3, and 20 mg/kg C3 groups were administered twice a day by oral tube feeding for 15 days, and the mice in the 20 mg/kg TY-3300 group were administered once a day by oral tube feeding for 15 days. Tumor volume and animal weight were measured twice a week and continued until the end of the experiment. Dosing day was defined as day 0. Measurement time points were day 0, day 3, day 7, day 10, day 14, and day 15. All mice were euthanized by cervical dislocation. At the end of the experiment, tumors were collected and weighed to calculate TGI values (see Table 6).

[11] = system: xMCF-7/Palbo-R cells; assay: xMCF-7/Palbo-R xenograft tumor model; format: in vivo; settings: 20 mg/kg, oral tube feeding twice daily for 20 days, Balb/c nude female mice
Method: To establish a xenograft tumor model, 1×10^7 xMCF-7/Palbo-R cells were suspended in 0.2 mL of a mixture of Matrigel and […] (1:1) and injected subcutaneously into 6-8 week-old Balb/c nube female mice. Tumor growth was observed periodically, and the volume (volume=½×(length×width 2)) was measured with a vernier caliper. When the tumors grew to an average volume of 100˜150 mm3, the drug was administered to mice (12 days after inoculation) in random groups according to the tumor size and their body weights. […] The drugs were administered by oral tube feeding twice daily for 20 days. Tumor volume and animal weight were measured twice a week and continued until the end of the experiment. Dosing day was defined as day 0. Measurement time points were day 0, day 3, day 7, day 10, day 14, day 17 and day 20. All mice were euthanized by cervical dislocation. At the end of the experiment, tumors were collected and weighed to calculate TGI values (see Table 4).

Molecule	IC50 ([1]; Homo sapiens, HCC1806, 168 h) [nM]	IC50 ([2]; Homo sapiens, OVCAR-3, 168 h) [nM]	IC50 ([3]; Homo sapiens, 168 h) [nM]	IC50 ([4]; Homo sapiens, 168 h) [nM]	IC50 [5] [nM]	IC50 [6] [nM]	IC50 [7] [nM]	TGI ([8]; 30 mg/kg, oral tube feeding twice daily for 21 days) [%]	TGI ([8]; 50 mg/kg, oral tube feeding twice daily for 21 days) [%]	IC50 ([9]; read-out: AbsIC50) [nM]	IC50 ([9]; read-out: ReIC50) [nM]	Bottom(%) [9] [%]	Top(%) [9] [%]	IC50 [1] [nM]	IC50 [2] [nM]	IC50 [3] [nM]	IC50 [4] [nM]	TGI ([8]; 60 mg/kg, oral tube feeding once daily for 21 days) [%]	TGI [10] [%]	TGI [11] [%]
[2H]C1(Nc2ncc3cc(OC(F)F)c(=O)n([C@@H]4CCC[C@@]4(C)O)c3n2)CCN(S(C)(=O)=O)CC1 [Example 29]	≤ 50	≤ 50	≤ 50	50 to 5200	< 10	< 10	< 10	69	74.8	–	–	–	–	–	–	–	–	–	–	–
Palbociclib [reference compound]	–	–	–	–	–	–	–	–	–	4010	7090	−3.542	68.840	> 1000	> 1000	≤ 50	50 to 5200	27.7	39	–
C[C@@]1(O)CCC[C@H]1n1c(=O)c(OC(F)F)cc2cnc(NC3CCN(S(=O)(=O)c4ccccn4)CC3)nc21 [Example 27]	≤ 50	≤ 50	≤ 50	≤ 50	< 10	< 10	< 10	–	–	–	–	–	–	–	–	–	–	–	–	61.5
C[C@@]1(O)CCC[C@H]1n1c(=O)c(OC(F)F)cc2cnc(NC3CCN(S(=O)(=O)c4ccc(F)cc4)CC3)nc21 [Example 12]	≤ 50	≤ 50	50 to 5200	≤ 50	< 10	< 10	< 10	–	–	26	26	7.117	99.196	–	–	–	–	–	–	–
